Test results published in ChEMBL document CHEMBL6092221, “Discovery of a Novel Macrocyclic Noncovalent CDK7 Inhibitor for Cancer Therapy” (J Med Chem, 2024).
≈ marks a conversion by molar mass, not a printed value.

Legend:
[1] = Clearance in mouse at 1 mg/kg, iv; type: ADME, organism-based; conditions: in vivo
[2] = system: Mus musculus; assay: Downregulation of Myc protein in female Balb/c nude mouse xenografted with human HCC70 cells administered once daily for 7 days; type: functional; conditions: dose 2-10 mg/kg, time 7.0 day
[3] = Plasma stability in human assessed as half life; type: ADME, cell-free
[4] = Half life in rat at 1 mg/kg, iv; type: ADME, organism-based; conditions: in vivo
[5] = Cmax in Sprague-Dawley rat at 300 mg/kg, po; type: ADME, organism-based; conditions: in vivo
[6] = Volume of distribution at steady state in rat at 1 mg/kg, iv; type: ADME, organism-based; conditions: in vivo, read-out: Vdss
[7] = system: OVCAR-3; assay: cells; conditions: Homo sapiens, OVCAR-3, 72 h
Description: Antiproliferative activity against human OVCAR-3 cells assessed as inhibition of cell proliferation incubated for 72 hrs by celltiter-glo assay

[8] = Oral bioavailability in mouse at 5 mg/kg; type: ADME, organism-based; conditions: in vivo
[9] = AUC (0 to t) in human OVCAR-3 cells xenografted in female Balb/c nude mouse plasma at 5 mg/kg, po administered once daily; type: ADME, organism-based
[10] = Toxicity in female Balb/c nude mouse xenografted with human OVCAR-3 cells assessed as body weight loss at 2 to 20 mg/kg, po administered once daily and measured for 3 weeks; type: organism-based; conditions: in vivo, 504 h, dose 2-20 mg/kg
[11] = Cmax in Sprague-Dawley rat at 100 mg/kg, po; type: ADME, organism-based; conditions: in vivo
[12] = Drug concentration in rat plasma at 5 mg/kg, po measured after 2 hrs; type: ADME, organism-based
[13] = target: Homeodomain-interacting protein kinase 4 (Homo sapiens, UniProt Q8NE63); assay: Inhibition of HIPK4 (unknown origin)
[14] = Half life in human HCC70 cells xenografted in female nu/nu mouse plasma at 3 mg/kg, po administered once daily; type: ADME, organism-based
[15] = Half life in rat at 5 mg/kg, po; type: ADME, organism-based; conditions: in vivo
[16] = AUC (0 to t) in human OVCAR-3 cells xenografted in female Balb/c nude mouse plasma at 10 mg/kg, po administered once daily; type: ADME, organism-based
[17] = target: Cyclin-dependent kinase 4/cyclin D1 (Homo sapiens) (UniProt P11802+P24385); assay: Inhibition of CDK4/CyclinD1 (unknown origin) at 200 nM relative to control; values are per cent of control
[18] = target: Ribosomal protein S6 kinase alpha-3 (Homo sapiens, UniProt P51812); assay: Inhibition of RSK2 (unknown origin)
[19] = target: Cyclin-dependent kinase 7 (Homo sapiens) (UniProt P50613); assay: Inhibition of CDK7 (unknown origin) at 200 nM relative to control; values are per cent of control
[20] = Clearance in female Balb/c nude mouse at 1 mg/kg, iv; type: ADME, organism-based; conditions: in vivo
[21] = AUC(0 to t) in female Balb/c nude mouse at 5 mg/kg, po; type: ADME, organism-based; conditions: in vivo
[22] = target: Homeodomain-interacting protein kinase 4 (Homo sapiens) (UniProt Q8NE63); assay: Inhibition of HIPK4 (unknown origin) at 200 nM relative to control; values are per cent of control
[23] = Solubility of compound at pH 7.4; type: physicochemical; conditions: buffer
[24] = Metabolic stability in human liver microsomes assessed as intrinsic clearance; type: ADME, Microsome; conditions: read-out: CLH

Chain of Cyclin-dependent kinase 7 (Homo sapiens) (P50613 whole entry): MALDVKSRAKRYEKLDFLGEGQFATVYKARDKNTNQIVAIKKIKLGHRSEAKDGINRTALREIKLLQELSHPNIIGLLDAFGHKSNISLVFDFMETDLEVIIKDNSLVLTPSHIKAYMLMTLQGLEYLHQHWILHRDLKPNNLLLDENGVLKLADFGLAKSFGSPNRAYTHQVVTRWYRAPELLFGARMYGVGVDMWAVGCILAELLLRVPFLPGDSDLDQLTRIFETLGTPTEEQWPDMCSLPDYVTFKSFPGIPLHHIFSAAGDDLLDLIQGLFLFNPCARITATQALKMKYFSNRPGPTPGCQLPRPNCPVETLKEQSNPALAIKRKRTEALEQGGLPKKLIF
Chain of Ribosomal protein S6 kinase alpha-3 (P51812 whole entry): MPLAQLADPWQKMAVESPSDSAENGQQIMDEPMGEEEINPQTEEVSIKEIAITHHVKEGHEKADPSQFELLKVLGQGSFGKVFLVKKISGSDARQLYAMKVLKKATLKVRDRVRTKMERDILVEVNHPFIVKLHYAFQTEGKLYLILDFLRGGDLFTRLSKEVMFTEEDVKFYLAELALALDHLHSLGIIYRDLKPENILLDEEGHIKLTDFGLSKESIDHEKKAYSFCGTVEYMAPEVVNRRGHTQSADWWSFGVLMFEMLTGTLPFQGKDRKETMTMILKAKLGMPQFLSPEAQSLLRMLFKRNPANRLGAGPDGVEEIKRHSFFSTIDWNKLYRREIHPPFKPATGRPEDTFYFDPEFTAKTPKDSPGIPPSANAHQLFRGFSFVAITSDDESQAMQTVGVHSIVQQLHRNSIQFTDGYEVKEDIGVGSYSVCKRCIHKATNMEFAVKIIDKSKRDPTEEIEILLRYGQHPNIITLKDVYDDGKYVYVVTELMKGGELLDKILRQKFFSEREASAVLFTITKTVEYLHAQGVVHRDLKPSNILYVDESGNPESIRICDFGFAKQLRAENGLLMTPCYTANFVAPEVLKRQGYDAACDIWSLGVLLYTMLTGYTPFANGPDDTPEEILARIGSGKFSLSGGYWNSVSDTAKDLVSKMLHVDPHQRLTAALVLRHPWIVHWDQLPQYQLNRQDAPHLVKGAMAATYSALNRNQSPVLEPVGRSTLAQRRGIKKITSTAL
Chain of Homeodomain-interacting protein kinase 4 (Q8NE63 whole entry): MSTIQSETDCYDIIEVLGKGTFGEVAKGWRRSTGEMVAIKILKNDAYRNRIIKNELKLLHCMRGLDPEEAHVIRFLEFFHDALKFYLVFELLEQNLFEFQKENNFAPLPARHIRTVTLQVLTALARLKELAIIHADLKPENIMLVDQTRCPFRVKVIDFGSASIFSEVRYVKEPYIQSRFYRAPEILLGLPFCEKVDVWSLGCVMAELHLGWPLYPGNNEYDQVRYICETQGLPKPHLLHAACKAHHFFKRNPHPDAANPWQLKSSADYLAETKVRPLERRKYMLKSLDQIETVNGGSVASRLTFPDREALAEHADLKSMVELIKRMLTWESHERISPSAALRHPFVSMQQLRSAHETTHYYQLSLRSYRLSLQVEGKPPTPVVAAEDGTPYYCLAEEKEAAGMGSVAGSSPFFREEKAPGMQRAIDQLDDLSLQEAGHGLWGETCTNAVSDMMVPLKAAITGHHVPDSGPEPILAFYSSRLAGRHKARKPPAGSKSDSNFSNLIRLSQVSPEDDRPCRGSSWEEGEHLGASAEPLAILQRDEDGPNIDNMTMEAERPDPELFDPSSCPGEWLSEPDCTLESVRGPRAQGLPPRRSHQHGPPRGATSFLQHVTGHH
Chain of Homeodomain-interacting protein kinase 4 (Homo sapiens) (Q8NE63 whole entry): as above

CN1CC(F)(F)CCN(C)[C@H]2CC[C@@H](C2)Nc2ncc(C(F)(F)F)c(n2)-c2c[nH]c3c(P(C)(C)=O)c(ccc23)C1=O
clearance [1]: 52.6 mL/min/kg | Activity [2]: Dose-dependent-effect | half-life [3]: > 289 min | half-life [4]: 72 min | Cmax [5]: 3310 ng/mL | Vd [6]: 2.6 L/kg | IC50 [7]: 57 nM | bioavailability [8]: 78.7% | AUC(0-t) [9]: 694 ng·h/mL | Activity [10]: Non-toxic | Cmax [11]: 3830 ng/mL | concentration at 2 h [12]: 68.8 ng/mL | IC50 [13]: 55 nM | half-life [14]: 96 min | half-life [15]: 84 min | AUC(0-t) [16]: 1720 ng·h/mL | residual activity [17]: 2.7% | IC50 [18]: 291 nM | residual activity [19]: 0.35% | clearance [20]: 52.6 mL/min/kg | AUC(0-t) [21]: 938 ng·h/mL | residual activity [22]: 9.4% | solubility [23]: 917 µg/mL (≈ 1530 µM) | CLint scaled [24]: 19.6 mL/min/kg
